pIC50: −log10 of the molar value.

A word on the pIC50: it is −log10 of the IC50, conventionally taken in molar units.

Assay [1] relates to IL-4 induced STAT6 phosphorylation in wild type BMDMs. As to the kind of experiment: IL-4 induced STAT6 phosphorylation in wild type BMDMs (immunoblot). It counts as cell-based. As to conditions: Mus musculus, BMDM, 0.5 h; 10 ng/ml IL-4 30 min, pSTAT6 Tyr641 immunoblot, two independent experiments. As for the experimental part:
(§1) Figure 3 Effect of JAK3 inhibitors on IL-4 induced STAT6 phosphorylation. BMDMs were isolated from wild type and JAK3 Cys905Ser knockin mice. Cells were incubated with the indicated concentrations of inhibitor before stimulation for 30 min with 10 ng/ml IL-4. Cells were lysed and the levels of STAT6 phosphorylated at Tyr641 were assessed by immunoblotting. Levels of ERK1/2 were determined as a loading control.
(§2) Bone marrow derived macrophages (BMDMs) were cultured as described. Briefly, bone marrow was flushed in PBS from the femurs and tibias of mice. Cells were cultured on bacterial grade plastic for 7 days at 37 °C, 5% CO2. Cells were then detached using Versene (Gibco), re-plated on tissue culture plastic in BMDM media (in DMEM supplemented with 10% heat inactivated FBS (Labtech), 2 mM L-glutamine, 100 U/ml penicillin G, 100 μg/ml streptomycin and 0.25 μg/ml amphotericin, 5 ng/ml M-CSF) and used within 48 h. Where indicated cells were stimulated with 10 ng/ml IL-4, 10 ng/ml GM-CSF, 10 ng/ml IL-10 or 10 ng/ml IFNβ. All cytokines were from PeproTech.
(§3) Cells were lysed directly into SDS sample buffer and aliquots run on 10% polyacrylamide gels using standard methods. Proteins were transferred onto nitrocellulose membranes, and specific proteins were detected by immunoblotting. Antibodies against tyrosine phosphorylated STATs were from Cell Signaling Technology (phospho-STAT1 #9167, phospho-STAT3 #9131, phospho-STAT5 #4322 and phospho-STAT6 #9361). The total ERK1/2 antibody used as a loading control was also from cell Signaling Technology (#4695). HRP-conjugated secondary antibodies were obtained from Pierce. Bands were detected using Clarity ECL reagents from BioRad and imaged on a Licor Odyssey Fc system. Quantification was carried out using Licor Image Studio software. After correction for the ERK1/2 levels to account for loading differences, percentage inhibition was calculated relative to the IL-4 stimulated condition. IC50 values were calculated using the same methods as for the in vitro IC50 values.
For orientation: A western blot detects proteins with antibodies after separation by electrophoresis.

For assay [2], the system named is IL-4 induced STAT6 phosphorylation in BMDMs from JAK3 Cys905Ser knockin mice. In words: IL-4 induced STAT6 phosphorylation in JAK3 Cys905Ser knockin BMDMs (immunoblot). It counts as cell-based, mouse. As to conditions: Mus musculus, BMDM, 0.5 h; 10 ng/ml IL-4 30 min, pSTAT6 Tyr641 immunoblot, two independent experiments. On the procedure:
as §1, §2, §3

Assay [3] concerns IL-4 induced STAT6 phosphorylation in wild type BMDMs. As to the kind of experiment: Inhibitor washout, IL-4 induced STAT6 phosphorylation, wild type BMDMs. The conditions noted are these: inhibitor 2 h, 0.5 μM Ruxolitinib. Type of assay: cell-based, mouse. On the procedure: Covalent inhibitors would be predicted to have very slow off rates and therefore inhibition should remain even if the unbound inhibitors are washed out of the cells. To test this, cells were treated with a high concentration of inhibitor for 2 h before being washed 3 times in PBS and then incubated in media without inhibitor for 0.5 to 24 h. If the inhibitor acts via a non-covalent mechanism, inhibition would not be expected to remain following washout from the cells. Ruxolitinib is a non-covalent pan-JAK inhibitor that can inhibit multiple JAK-STAT pathways in macrophages. […] To confirm this was not the case, similar experiments were done in JAK3 Cys905Ser knockin cells. […] Similar experiments were also carried out with PF-06651600. […] As the level of inhibition was lower at 2 h post washout than 30 min the experiment was repeated to look at 4 and 24 h time points for the washout step.
Figure 4 Effect of inhibitor washout on JAK3 inhibition. BMDMs were isolated from wild type and JAK3 Cys905Ser knockin mice. […] The macrophages were then either stimulated with 10 ng/ml IL-4 for 30 min or washed 3 times in PBS and then incubated in media without inhibitor for the indicated times. The cells were then stimulated with IL-4 for 30 min and STAT6 phosphorylation determined by immunoblotting using levels of ERK1/2 as a loading control.
as §2, §3

Consider `CN(C)C(=O)/C(C#N)=C/c1ccc(-c2nc3cnc4[nH]ccc4c3n2C2CCCCC2)o1` [FM-381, reference compound], for which the pIC50 in assay [1] is 6.74; in assay [2], 6.05.
In the case of `N#CC[C@H](C1CCCC1)n1cc(-c2ncnc3[nH]ccc23)cn1` [Ruxolitinib], in assay [3] (no washout, 10 μM TL6-144), the “block of IL-4 induced STAT6 phosphorylation without washout, wild type BMDMs” value was “completely block”. For the same compound, the “inhibition of IL-4 induced STAT6 phosphorylation after inhibitor washout, wild type BMDMs” value in assay [3] (washed 3 times in PBS, IL-4 30 min to 2 h after washout, 10 μM TL6-144, 100 μM PF-06651600) is “completely lost”.

Source of the values: article PMC8115619, “Generation of a chemical genetic model for JAK3” (Scientific Reports, 2021).
